# Measured values: US20150182605A1, “Ultra-Low Dose Lysostaphin for Treating MRSA” (priority 2013, published 2015)
# Columns and labels:
# SA5 (ATCC 49521) = assay: Effect of antibiotics and lysostaphin on growth of SA5 (% T, 96-well); format: cell-based, Staphylococcus aureus; conditions: for inhibition and killing of the staph by antibiotic alone: antibiotic alone at 25 or 12.5 mg/ml, 5 and 22 hours
# Description: It was determined whether low levels of lysostaphin would act synergistically with Nafcillin or Oxacillin to kill an SA5 (ATCC 49521). The study was performed in a 96-well dish to allow titration of lysostaphin and antibiotics. The end point was % T. Plating of bacteria from the assay plate was not done.
# Fifty μl of SA5 (ATCC 49521) was reconstituted from a frozen stock and grown overnight on a blood agar plate at 37° C. Bacteria were transferred from the blood agar plate (approximately 25% of the lawn) into 30 mls of TSB and grown for 2 hours at 37° C. on a rotating shaker set at 250 rpm. […] A 1:4 dilution of this suspension in TSB gave a % T of ˜50% in a 96 well dish.
# For the assay, lysostaphin (Sigma Cat L7386; lot 063M4011V; 3387.5 units/ml stock in water) was diluted in three-fold dilutions (in TSB) from 3 units/ml (row A) to 0.0123 units/ml (row G) in 50 μl/well. The wells in row H received TSB alone. This plate was designated the assay plate. In a separate 96-well plate (i.e. the dilution plate), Nafcillin (Sigma Cat N3269; lot SLBF8230V, 50 mg/ml in water) was diluted in TSB to 25 mg/ml and a second dilution of 12.5 mg/ml was also prepared (columns 1 and 2 of the dilution plate). Oxacillin (Sigma Cat 01002; lot SLBC9948V; 50 mg/ml in water) was diluted to 25 mg/ml in TSB and a second dilution of 12.5 mg/ml was also prepared (columns 4 and 5 of the dilution plate).
# Fifty μl of the antibiotic solutions were transferred to the corresponding wells of the assay plate containing the lysostaphin solution. 50 μl of TSB alone was transferred to columns 3 and 6 (i.e. no antibiotic controls) of the assay plate. The combination of antibiotics and lysostaphin yielded a volume of 100 μl. 125 μl of S. aureus 49521, diluted 1:2 in TSB was then added to all wells of the plate, except wells H1, H2, H4 and H5, which served as the blank well for determining the % T. After addition of the bacteria, and between each determination of the % T, the plate was incubated at 37° C. with gentle rotation (˜50 rpm). The % T was then determined at 2 and 15 minutes after addition of the bacteria, and again at 5 hours and 22 hours after addition of the bacteria.
# [1] = test system: S. aureus type 5 (ATCC 49521); assay: % T (turbidity) lysis assay of S. aureus type 5 suspension in tubes; format: cell-based, Staphylococcus aureus; conditions: 10 minutes at 37° C.
# Description: 50 μl of S. aureus type 5 (ATCC 49521) was plated onto blood agar plates and incubated overnight. The resulting bacterial lawn was transferred to 30 mls of TSB (tryptic soy broth; Remel cat 112740) and incubated at 37° C. for about 60 minutes at 225 rpm. The percent transmission (% T) of the bacterial suspension following incubation was about 7%. The % T was adjusted to 53% by addition of 100 μl of bacterial suspension to 4500 μl of TSB (in five individual tubes) and the % T was measured in each tube. An additional tube contained TSB alone. Tube #1 received no lysostaphin. Tube #2 was designated to receive 550 μl of recombinant lysostaphin, but the lysostaphin was erroneously added to Tube #3, and thus, Tube #2 was discarded. Tube #3 received 550 μl recombinant lysostaphin (from a 2,000 μg/ml stock solution) for a final concentration of about 220 μg/ml (this tube erroneously received lysostaphin dose intended for tube #2 (i.e. 500 μl of lysostaphin stock) plus the 50 μl of lysostaphin originally intended for this tube. Tube #4 received 500 μl of natural lysostaphin from S. staphylolyticus (from a 2,000 μg/ml stock solution) for a final concentration of about 200 μg/ml. Tube #5 received 50 μl of natural lysostaphin from S. staphylolyticus (from a 2,000 μg/ml stock solution) for a final concentration of about 20 μg/ml. The tubes were vortexed, incubated at 37° C. for 10 minutes at 150 rpm and the % T for each determined (see FIG. 3 which is summarized in Table 2). An increase in the % T indicates killing of bacteria. Both lysostaphins were highly likely active against this SA5.
# SA5 = assay: % T lysis assay of SA5 in 96-well configuration; format: cell-based, Staphylococcus aureus; conditions: 0.1 μg/ml; for change in % T / killing: neat solution of SA5, 10 minutes at 37° C. (FIG. 4)
# Description: A second assay was performed in which the SA5 and lysostaphin were tested in a 96-well configuration. For this assay, 100 μl of the SA5 solution was added to wells followed by 100 μl of the lysostaphin solution. % T was obtained at TO and the plate incubated at 37° C. for 10 minutes with gentle rotation. The % T was obtained and the results compared.
# S. aureus cells [2] = conditions: from COA; cited from earlier work
# [3] = test system: anti-lysostaphin antibodies; assay: Assay of mouse sera on lysostaphin-coated plates after immunization; format: binding; conditions: gamma-specific detection, compared with the other lysostaphin as coating antigen, regardless of the immunogen
# Description: Assay of mouse sera on plates coated with lysostaphin from simulans expressed as recombinant in E coli and coated with natural lysostaphin from S. staphylolyticus. Mice received a primary immunization (subcutaneous) with 10 μg recombinant lysostaphin from E. coli (Sigma-Aldrich) (animal numbers 8603, 8604) or 10 μg of natural lysostaphin from S. staphylolyticus (Sigma-Aldrich) (animal numbers 8621-8623). Primary immunization was administered and boosted about three weeks later. No adjuvant was used for the immunizations. Serum samples were tested using gamma-specific detection (FIGS. 1 and 2). Bars represent binding seen with normal serum (first bar), serum after the first injection (second bar), and serum after the boost injection three weeks later (third and in most cases largest bar). The results on wells coated with simulans lysostaphin (FIG. 1) were stronger than the results on wells coated with staphylolyticus lysostaphin (FIG. 2), regardless of the immunogen. Mouse 8621 was poorly reactive on both coating antigens. Note that each graph is scaled to 1.500 on the y-axis for comparison purposes.
# S. aureus cells [4] = assay: Enzymatic activity per certificate of analysis (COA); format: biochemical, Staphylococcus aureus; conditions: from COAs of both products
# Description: Doses may also be as international units. One international unit (IU) is about 3.1 μg and will reduce the turbidity (A620) of a suspension of S. aureus cells from 0.250 to 0.125 in 10 minutes at pH 7.5 at 37° C. in a 6.0 ml reaction mixture.
compound,measurement,setting,value
lysostaphin: lysostaphin (Sigma Cat L7386; lot 063M4011V; 3387.5 units/ml stock in water); 27 kD glycylglycine endopeptidase,synergy of lysostaphin with the antibiotics,"SA5 (ATCC 49521); lysostaphin 0.0123 units/ml with Nafcillin or Oxacillin, 5 to 22 hours",acted synergistically
same,% T,"SA5 (ATCC 49521); lysostaphin 0.0123 units/ml without antibiotic, 5 hours, FIG. 8",97.0 % T
same,% T,"SA5 (ATCC 49521); lysostaphin 0.0123 units/ml without antibiotic, 5 hours, FIG. 11",98.0 % T
same,% T,"SA5 (ATCC 49521); lysostaphin 0.0123 units/ml without antibiotic, 22 hours, FIG. 8",75.4 % T
same,% T,"SA5 (ATCC 49521); lysostaphin 0.0123 units/ml without antibiotic, 22 hours, FIG. 11",60.2 % T
same,% T,"SA5 (ATCC 49521); lysostaphin 0.0123 units/ml, within 5 hours",> 95 % T
same,% T,"SA5 (ATCC 49521); lysostaphin at concentrations higher than 0.0123 units/ml, at 5 (not shown)",> 95%
same,% T,"SA5 (ATCC 49521); most concentrations of lysostaphin, without antibiotics, after 22 hours",below 70%
natural lysostaphin: natural lysostaphin from S. staphylolyticus (Sigma-Aldrich),Ending % T,"[1]; 20 μg/ml, tube 5",95.0 % T
same,Ending % T,"[1]; 200 μg/ml, tube 4",94.6 % T
same,change in % T,SA5; SA5 at a dilution of 1:2 vs neat SA5 (FIG. 5),greater change
same,change in % T / killing,SA5,increased only slightly
"CCOc1ccc2ccccc2c1C(=O)N[C@@H]1C(=O)N2[C@@H]1SC(C)(C)[C@@H]2C(=O)O [Nafcillin, reference compound]",inhibition and killing of the staph by antibiotic alone,SA5 (ATCC 49521),ineffective rapid inhibition and killing
"Cc1onc(-c2ccccc2)c1C(=O)N[C@@H]1C(=O)N2[C@@H]1SC(C)(C)[C@@H]2C(=O)O [Oxacillin, reference compound]",inhibition and killing of the staph by antibiotic alone,SA5 (ATCC 49521),ineffective rapid inhibition and killing
recombinant lysostaphin: lysostaphin from simulans expressed as recombinant in E. coli (Sigma-Aldrich),Ending % T,"[1]; 220 μg/ml, tube 3, increase in % T indicates killing",94.0 % T
same,enzymatic activity,S. aureus cells [2],"greater than 3,000 units per mg"
same,binding of mouse serum antibodies to the coated lysostaphin,[3],markedly higher binding
same,binding of mouse serum antibodies to the coated lysostaphin,[3]; listed as simulans lysostaphin,stronger
same,activity relative to natural lysostaphin,S. aureus cells [4],6-7 fold
same,change in % T / killing,SA5,remained strong
